Assay results as given in patent publication US20200055848A1, “FURANONE DERIVATES AND METHODS OF USE THEREOF” (CARNA BIOSCIENCES, INC., priority 2016, published 2020).
Where “and” joins values, the source holds several entries; their conditions need not be identical. Equal values may be shown once.

Assays:
[1] = molecular target: T1, human Cdc7/human ASK complex protein (Homo sapiens, UniProt O00311); assay: Cdc7/ASK enzymatic assay; type: biochemical; conditions: 5 μM ATP; mean of duplicated assays; read-out: Cdc7 IC50
T1 construct: purchased Carna Biosciences, Inc
T1 sequence (O00311 whole entry): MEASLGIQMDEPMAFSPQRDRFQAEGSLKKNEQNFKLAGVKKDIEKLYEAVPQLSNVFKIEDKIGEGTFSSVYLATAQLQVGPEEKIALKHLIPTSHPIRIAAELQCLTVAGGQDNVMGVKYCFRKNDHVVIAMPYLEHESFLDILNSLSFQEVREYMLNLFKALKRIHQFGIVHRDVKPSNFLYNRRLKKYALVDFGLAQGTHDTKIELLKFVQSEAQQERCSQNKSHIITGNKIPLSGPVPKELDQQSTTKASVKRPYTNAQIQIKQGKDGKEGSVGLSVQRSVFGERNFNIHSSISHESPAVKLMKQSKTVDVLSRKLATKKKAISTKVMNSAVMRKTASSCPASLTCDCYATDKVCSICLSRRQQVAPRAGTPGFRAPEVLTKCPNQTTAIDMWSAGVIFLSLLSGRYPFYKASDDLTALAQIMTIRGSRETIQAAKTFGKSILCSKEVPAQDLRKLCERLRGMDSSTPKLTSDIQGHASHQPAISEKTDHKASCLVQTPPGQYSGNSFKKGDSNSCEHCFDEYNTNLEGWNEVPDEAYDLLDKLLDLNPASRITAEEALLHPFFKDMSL
T1 sequence (Q9UBU7 whole entry partner): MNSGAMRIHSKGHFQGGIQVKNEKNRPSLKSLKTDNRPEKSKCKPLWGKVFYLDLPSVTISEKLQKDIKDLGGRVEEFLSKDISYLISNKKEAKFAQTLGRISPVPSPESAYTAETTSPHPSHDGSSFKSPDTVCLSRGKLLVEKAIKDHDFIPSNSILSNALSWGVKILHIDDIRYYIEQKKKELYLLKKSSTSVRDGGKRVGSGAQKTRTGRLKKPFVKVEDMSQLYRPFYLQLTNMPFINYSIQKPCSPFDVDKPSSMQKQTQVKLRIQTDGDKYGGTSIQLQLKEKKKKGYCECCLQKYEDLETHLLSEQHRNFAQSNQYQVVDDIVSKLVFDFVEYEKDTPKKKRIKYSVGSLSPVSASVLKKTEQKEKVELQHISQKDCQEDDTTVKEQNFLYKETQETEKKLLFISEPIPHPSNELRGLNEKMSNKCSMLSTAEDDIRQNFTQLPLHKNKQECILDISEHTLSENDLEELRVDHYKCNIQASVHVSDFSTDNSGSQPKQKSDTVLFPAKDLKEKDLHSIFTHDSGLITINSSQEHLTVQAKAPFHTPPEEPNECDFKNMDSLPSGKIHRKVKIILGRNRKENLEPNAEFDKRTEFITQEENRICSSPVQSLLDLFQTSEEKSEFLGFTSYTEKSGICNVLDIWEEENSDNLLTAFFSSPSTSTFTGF
Description: Measurement of Cdc7 kinase activity was carried out using MSA assay kit (QuickScout™ Screening Assist Kit, Carna Biosciences, Inc.). Assay buffer (20 mM HEPES, 0.01% Triton X-100™, 2 mM dithiothreitol, pH 7.5) was used to prepare a substrate mixture solution comprising 4 μM of kinase-reaction substrate (FITC-labeled MCM2 peptide), 40 mM MgCl2, and 4 times concentrations of final targeted ATP (5, 100, and 1,000 μM). The enzyme supplied in the kit (human Cdc7/human ASK complex protein) was diluted into the assay buffer to prepare a 7 nM solution (enzyme solution). The compound stock solution was prepared by diluting a 10 mM DMSO solution into the assay buffer (final 4% DMSO). The kinase reaction was performed by mixing of 5 μL of the compound solution, 5 μL of the substrate mixture solution, and 10 μL of the enzyme solution in a 384-well plate. For the pre-incubation assay, the compound solution and the enzyme solution were pre-mixed and incubated at ambient temperature for 30 min before adding into the substrate mixture solution to start enzymatic reaction. After the reaction at 25° C. for 5 hours, 60 μL of the termination buffer (supplied in the kit) was added to stop the reaction. The phosphorylation of substrate was measured using a LabChip EZ Reader II system (Caliper Life Sciences). The percent inhibition (%) by a tested compound was calculated according to the following formula:
Percent inhibition (%)=(1−(C−A)/(B−A))×100
A represents P/(P+S) for a blank well, B represents P/(P+S) for a solvent well, and C represents P/(P+S) for a compound-added well. S: the peak heights of the separated substrate, P: phosphorylated substrate.
The IC50 value of tested compound was calculated by regression analysis of the percent inhibition values versus the (logarithmic) concentration of the tested compound.

[2] = In vitro metabolic stability, human liver microsomes; type: in vitro ADME; conditions: for HLM % (remaining % of parent compound): 30 min treatment of human liver microsomes
Description: (§1) NADPH regeneration system (13 mM NADP, 33 mM Glucose-6-phospate, 33 mM MgCl2, and 4 U/mL of Glucose-6-phosphate dehydrogenase) and liver microsomes (1 mg/mL of HLM (BD Gentest, lot 18888) or MLM (BD Gentest, lot 31197)) in 0.1 M phosphate buffer (pH 7.4) were pre-incubated separately at 37° C. for 20 min before mixing with 1:4 ratio. 50 μL of the mixed solution was added to 50 μL of the test compound (2 μM) to initiate the reaction at 37° C. (final conc. 1 μM test compound, 0.4 mg/mL liver microsomes, and 1.3 mM NADPH). After 30 min, the reactions were stopped by adding 300 μL of cold acetonitrile. For 0 min samples, ice-cold acetonitrile (with system suitability standard) was treated before mixing the test compound and microsomes. The sample were vortexed well and then centrifuged at 3500 rpm at 15° C. for 20 min. 110 μL of supernatant was mixed with 110 μL of water and quantitated by LC-MS/MS workstation (Shimazu Corp.).

[3] = In vitro metabolic stability, mouse liver microsomes; type: in vitro ADME; conditions: for MLM % (remaining % of parent compound): 30 min treatment of mouse liver microsomes
Description: as §1

[4] = Stability of the ethyl ester to hydrolysis; type: physicochemical
Description: Because the ester was expected to form important hydrogen bond with Lys90, an SAR study for the ester group was performed (Table 2). […] Generally esters are labile and can be easily hydrolyzed to the corresponding carboxylic acid. To our surprise, the ethyl ester of 3 was very stable even under strong basic conditions, and it required an extremely strong basic condition (50% w/v KOH aq., reflux) to hydrolyze this ester.
The general procedure for the replacement of R^2 by various groups is shown in Scheme 2. Methyl ester 8 was obtained analogously to ethyl ester 3 from the furanone intermediate 39 which was prepared from methyl 4-chloroacetoacetate 37 and phenyl isocyanate 38 (Scheme 2A). Compound 9 (Scheme 2B) was obtained by hydrolysis of compound 3 under extremely strong basic condition (50% w/v KOH aq., reflux). […] The amide analogs (10-12) were prepared directly by aminolysis of ethyl ester 3 with appropriate amines (Scheme 2C).

[5] = molecular target: T1, human Cdc7/human ASK complex protein; assay: Cdc7/ASK enzymatic assay; type: biochemical; conditions: 5 μM ATP versus 10 μM ATP as printed

| Structure (SMILES) | IC50 [1] | HLM % (remaining % of parent compound) [2] [%] | metabolic stability in human liver microsome (in words) ([2]; human) | MLM % (remaining % of parent compound) [3] [%] | metabolic stability in mice (in words) ([3]; mouse) | stability of the ethyl ester ([4]; conventional ester hydrolysis conditions: 2N HCl aq./EtOH, 60° C. or 2N NaOH aq./EtOH, 60° C.) | stability of the ethyl ester ([4]; strong basic conditions, hydrolysis required 50% w/v KOH aq., reflux) | fold stronger inhibitory potency at 5 μM ATP than inhibition at 10 μM ATP concentration [5] [fold] |
| --- | --- | --- | --- | --- | --- | --- | --- | --- |
| CCOC(=O)C1=C(Nc2ccccc2)OC(=Cc2c[nH]c3ncccc23)C1=O [Compound 3, Ethyl 5-((1H-pyrrolo[2,3-b]pyridin-3-yl)methylene)-4-oxo-2-(phenylamino)-4,5-dihydrofuran-3-carboxylate] | 3.3 nM and 3.8 nM | 23 | moderate metabolic stability | 7.9 | rapidly metabolized | very stable | very stable | 21 |
| CCOC(=O)C1=C(Nc2ccc(F)cc2F)OC(=Cc2c[nH]c3ncccc23)C1=O [Compound 23, Ethyl 5-((1H-pyrrolo[2,3-b]pyridin-3-yl)methylene)-2-((2,4-difluorophenyl)amino)-4-oxo-4,5-dihydrofuran-3-carboxylate] | 2.5 nM | 57 |  | 12 |  |  |  |  |
| CCOC(=O)C1=C(Nc2ccc(C)cc2C)OC(=Cc2c[nH]c3ncccc23)C1=O [Compound 24, Ethyl 5-((1H-pyrrolo[2,3-b]pyridin-3-yl)methylene)-2-((2,4-dimethylphenyl)amino)-4-oxo-4,5-dihydrofuran-3-carboxylate] | 3.9 nM | 63 |  | 30 |  |  |  |  |
